Test results taken from US20240391862A1, “(1,4,5-TRISUBSTITUTED-1H-PYRAZOL-3-YL)OXY-2-ALKOXY ALKYL ACIDS AND THEIR DERIVATIVES, THEIR SALTS AND THEIR USE AS HERBICIDAL AGENTS” (Bayer AKtiengesellschaft, priority 2021, published 2024).

Assays:
Assay in all cases: Post-emergence herbicidal effect, greenhouse pot test
ECHCG = assay type: in vivo, Echinochloa crus-galli; conditions: Echinochloa crus-galli, 504 h; for pest or weed control at 80 g/ha / pest or weed control at 320 g/ha: read-out: Post-emergence effect against ECHCG in %; for pest or weed control at 20 g/ha: visual rating about 3 weeks after treatment, read-out: Post-emergence effect against ECHCG
Source text: (§1) • ALOMY: Alopecurus myosuroides SETVI: Setaria viridis • AVEFA: Avena fatua POLCO: Fallopia convolvulus • AMARE: Amaranthus retroflexus ECHCG: Echinochloa crus-galli • LOLRJ: Lolium rigidum STEME: Stellaria media • VERPE: Veronica persica MATIN: Tripleurospermum inodorum • DIGSA: Digitaria sanguinalis ABUTH: Abutylon threophrasti • TRZAS: Triticum aestivum VIOTR: Viola tricolor • BRSNW: Brassica napus ZEAMX: Zea mays • PHBPU: Ipomoea purpurea GLXMA: Glycine max • ORYSA: Oryza sativa HORMU: Hordeum murinum
(§2) Seeds of monocotyledonous and dicotyledonous weeds and crop plants are placed in sandy loam in plastic or organic planting pots, covered with soil and cultivated in a greenhouse under controlled growth conditions. 2 to 3 weeks after sowing, the trial plants are treated at the one-leaf stage. The compounds of the invention, formulated in the form of wettable powders (WP) or as emulsion concentrates (EC), are then sprayed onto the green parts of the plants as aqueous suspension or emulsion with addition of 0.5% additive at a water application rate of 600 l/ha (converted). After the test plants have been kept in the greenhouse under optimum growth conditions for about 3 weeks, the activity of the preparations is rated visually in comparison to untreated controls. For example, 100% activity=the plants have died, 0% activity=like control plants.
(§3) Tables 20a to 38c below show the effects/crop compatibilities of selected compounds of the general formula (I) on various harmful plants at an application rate corresponding to 20 to 320 g/ha, which were obtained by the trial procedure specified above.

VIOTR = assay type: in vivo, Viola tricolor; conditions: Viola tricolor, 504 h, read-out: Post-emergence effect against VIOTR in %
Source text: as §1, §2, §3

MATIN = assay type: in vivo, Tripleurospermum inodorum; conditions: Tripleurospermum inodorum, 504 h, read-out: Post-emergence effect against MATIN in %
Source text: as §1, §2, §3

AMARE = assay type: in vivo, Amaranthus retroflexus; conditions: Amaranthus retroflexus, 504 h, visual rating about 3 weeks after treatment, read-out: Post-emergence effect against AMARE
Source text: as §1, §2, §3

SETVI = assay type: in vivo, Setaria viridis; conditions: Setaria viridis, 504 h, read-out: Post-emergence effect against SETVI in %
Source text: as §1, §2, §3

VERPE = assay type: in vivo, Veronica persica; conditions: Veronica persica, 504 h, read-out: Post-emergence effect against VERPE in %
Source text: as §1, §2, §3

ALOMY = assay type: in vivo, Alopecurus myosuroides; conditions: Alopecurus myosuroides, 504 h, visual rating about 3 weeks after treatment, read-out: Post-emergence effect against ALOMY
Source text: as §1, §2, §3

PHBPU = assay type: in vivo, Ipomoea purpurea; conditions: Ipomoea purpurea, 504 h, read-out: Post-emergence effect against PHBPU in %
Source text: as §1, §2, §3

LOLRI = assay type: in vivo, Lolium rigidum; conditions: Lolium rigidum, 504 h, read-out: Post-emergence effect against LOLRI in %
Source text: as §1, §2, §3

AVEFA = assay type: in vivo, Avena fatua; conditions: Avena fatua, 504 h, visual rating about 3 weeks after treatment, read-out: Post-emergence effect against AVEFA
Source text: as §1, §2, §3

DIGSA = assay type: in vivo, Digitaria sanguinalis; conditions: Digitaria sanguinalis, 504 h, visual rating about 3 weeks after treatment, read-out: Post-emergence effect against DIGSA
Source text: as §1, §2, §3

ABUTH = assay type: in vivo, Abutilon theophrasti; conditions: Abutilon theophrasti, 504 h, visual rating about 3 weeks after treatment, read-out: Post-emergence effect against ABUTH
Source text: as §1, §2, §3

POLCO = assay type: in vivo, Fallopia convolvulus; conditions: Fallopia convolvulus, 504 h, read-out: Post-emergence effect against POLCO in %
Source text: as §1, §2, §3

`COC(=O)C(OC)Oc1nn(-c2cc(F)ccc2F)c(-c2cncc(F)c2)c1Br` (centres unmarked) [Example I-29] gave a pest or weed control at 80 g/ha (ECHCG) of 80%, a pest or weed control at 320 g/ha (ECHCG) of 90% and a pest or weed control at 20 g/ha (VIOTR) of 80%. For the same compound, the pest or weed control at 80 g/ha (VIOTR) was 90%, the pest or weed control at 320 g/ha (VIOTR) was 90% and the pest or weed control at 20 g/ha (MATIN) was 80%. For the same compound, the pest or weed control at 80 g/ha (MATIN) was 90%, the pest or weed control at 320 g/ha (MATIN) was 90% and the pest or weed control at 80 g/ha (AMARE) was 90%. It also gave a pest or weed control at 320 g/ha (AMARE) of 90%, a pest or weed control at 80 g/ha (SETVI) of 90% and a pest or weed control at 320 g/ha (SETVI) of 90%. The pest or weed control at 80 g/ha (VERPE) was 90%, the pest or weed control at 320 g/ha (VERPE) was 90% and the pest or weed control at 320 g/ha (ALOMY) was 90%. It also gave a pest or weed control at 20 g/ha (PHBPU) of 80%, a pest or weed control at 80 g/ha (PHBPU) of 80% and a pest or weed control at 320 g/ha (PHBPU) of 90%. The pest or weed control at 320 g/ha (LOLRI) was 90%, the pest or weed control at 80 g/ha (AVEFA) was 90% and the pest or weed control at 320 g/ha (AVEFA) was 90%. For the same compound, the pest or weed control at 320 g/ha (DIGSA) was 80%, the pest or weed control at 80 g/ha (ABUTH) was 80% and the pest or weed control at 320 g/ha (ABUTH) was 90%. For the same compound, the pest or weed control at 320 g/ha (POLCO) was 80%.

For `COC(=O)C(OC)Oc1nn(-c2ccccc2)c(-c2ccc(F)nc2)c1Br` (centres unmarked) [Example I-30], the pest or weed control at 20 g/ha (ECHCG) was 80%, the pest or weed control at 80 g/ha (ECHCG) was 90% and the pest or weed control at 320 g/ha (ECHCG) was 90%. For the same compound, the pest or weed control at 20 g/ha (VIOTR) was 80%, the pest or weed control at 80 g/ha (VIOTR) was 90% and the pest or weed control at 320 g/ha (VIOTR) was 90%. For the same compound, the pest or weed control at 80 g/ha (MATIN) was 80%, the pest or weed control at 320 g/ha (MATIN) was 90% and the pest or weed control at 80 g/ha (AMARE) was 80%. It also gave a pest or weed control at 320 g/ha (AMARE) of 80%, a pest or weed control at 20 g/ha (SETVI) of 80% and a pest or weed control at 80 g/ha (SETVI) of 90%. For the same compound, the pest or weed control at 320 g/ha (SETVI) was 90%, the pest or weed control at 20 g/ha (VERPE) was 80% and the pest or weed control at 80 g/ha (VERPE) was 80%. The pest or weed control at 320 g/ha (VERPE) was 90%, the pest or weed control at 320 g/ha (ALOMY) was 90% and the pest or weed control at 80 g/ha (PHBPU) was 80%. It also gave a pest or weed control at 320 g/ha (PHBPU) of 90%, a pest or weed control at 320 g/ha (LOLRI) of 90% and a pest or weed control at 80 g/ha (AVEFA) of 90%. It also gave a pest or weed control at 320 g/ha (AVEFA) of 90%, a pest or weed control at 80 g/ha (DIGSA; 80 g/ha) of 90% and a pest or weed control at 320 g/ha (DIGSA) of 90%. It also gave a pest or weed control at 80 g/ha (ABUTH) of 80%, a pest or weed control at 320 g/ha (ABUTH) of 90% and a pest or weed control at 80 g/ha (POLCO) of 80%. It also gave a pest or weed control at 320 g/ha (POLCO) of 80%.

In the case of `COC(=O)C(OC)Oc1nn(-c2cc(F)ccc2F)c(-c2cncc(F)c2)c1C1CC1` (centres unmarked) [Example I-111], the pest or weed control at 20 g/ha (ECHCG) is reported as 80%, the pest or weed control at 80 g/ha (ECHCG) is reported as 90% and the pest or weed control at 320 g/ha (ECHCG) is reported as 90%. The pest or weed control at 80 g/ha (VIOTR) was 80%, the pest or weed control at 320 g/ha (VIOTR) was 80% and the pest or weed control at 20 g/ha (MATIN) was 80%. For the same compound, the pest or weed control at 80 g/ha (MATIN) was 80%, the pest or weed control at 320 g/ha (MATIN) was 80% and the pest or weed control at 80 g/ha (AMARE) was 80%. The pest or weed control at 320 g/ha (AMARE) was 80%, the pest or weed control at 20 g/ha (SETVI) was 80% and the pest or weed control at 80 g/ha (SETVI) was 80%. For the same compound, the pest or weed control at 320 g/ha (SETVI) was 80%, the pest or weed control at 20 g/ha (VERPE) was 80% and the pest or weed control at 80 g/ha (VERPE) was 80%. For the same compound, the pest or weed control at 320 g/ha (VERPE) was 80%, the pest or weed control at 80 g/ha (ALOMY; 80 g/ha) was 80% and the pest or weed control at 320 g/ha (ALOMY) was 90%. It also gave a pest or weed control at 20 g/ha (PHBPU) of 80%, a pest or weed control at 80 g/ha (PHBPU) of 90% and a pest or weed control at 320 g/ha (PHBPU) of 90%. The pest or weed control at 80 g/ha (LOLRI; 80 g/ha) was 90%, the pest or weed control at 320 g/ha (LOLRI) was 90% and the pest or weed control at 80 g/ha (AVEFA) was 90%. It also gave a pest or weed control at 320 g/ha (AVEFA) of 90%, a pest or weed control at 320 g/ha (DIGSA) of 80% and a pest or weed control at 80 g/ha (ABUTH) of 80%. For the same compound, the pest or weed control at 320 g/ha (ABUTH) was 90%, the pest or weed control at 80 g/ha (POLCO) was 80% and the pest or weed control at 320 g/ha (POLCO) was 80%.
